≈ marks a conversion by molar mass, not a printed value.
Legend:
[1] = test system: Mycobacterium bovis BCG str. ATCC 35743; assay: Antitubercular activity against dormant Mycobacterium bovis BCG ATCC 35743 assessed as growth inhibition at 3 ug/mL by NR assay; type: functional
[2] = test system: Mycobacterium bovis BCG str. ATCC 35743; assay: Antitubercular activity against dormant Mycobacterium bovis BCG ATCC 35743 assessed as growth inhibition at 10 ug/mL by NR assay; type: functional
[3] = test system: Mycobacterium tuberculosis; assay: Antitubercular activity against dormant Mycobacterium tuberculosis H37Ra assessed as growth inhibition at 30 ug/mL by XTT reduction menadione assay; type: functional; conditions: read-out: GI
[4] = test system: Mycobacterium tuberculosis; assay: Antitubercular activity against dormant Mycobacterium tuberculosis H37Ra assessed as growth inhibition at 10 ug/mL by XTT reduction menadione assay; type: functional; conditions: read-out: GI
[5] = test system: Mycobacterium tuberculosis; assay: Antitubercular activity against dormant Mycobacterium tuberculosis H37Ra assessed as growth inhibition at 3 ug/mL by XTT reduction menadione assay; type: functional; conditions: read-out: GI
[6] = test system: Mycobacterium bovis BCG str. ATCC 35743; assay: Antitubercular activity against dormant Mycobacterium bovis BCG ATCC 35743 assessed as growth inhibition at 30 ug/mL by NR assay; type: functional
[7] = (§1) Antitubercular activity against dormant Mycobacterium bovis BCG ATCC 35743 by NR assay; type: functional, Mycobacterium bovis BCG str. ATCC 35743
[8] = test system: Mycobacterium bovis BCG str. ATCC 35743; assay: as §1; type: functional
[9] = test system: Mycobacterium tuberculosis; assay: Antitubercular activity against dormant Mycobacterium tuberculosis H37Ra by XTT reduction menadione assay; type: functional, organism-based
[10] = Cytotoxicity against human MCF7 cells at 30 ug/mL by MTT assay; type: cell-based; conditions: read-out: INH
[11] = Cytotoxicity against human MCF7 cells at 10 ug/mL by MTT assay; type: cell-based; conditions: read-out: INH
[12] = Cytotoxicity against human MCF7 cells at 3 ug/mL by MTT assay; type: cell-based; conditions: read-out: INH
[13] = Cytotoxicity against human A549 cells at 30 ug/mL by MTT assay; type: cell-based; conditions: read-out: INH
[14] = Cytotoxicity against human A549 cells at 10 ug/mL by MTT assay; type: cell-based; conditions: read-out: INH
[15] = Cytotoxicity against human A549 cells at 3 ug/mL by MTT assay; type: cell-based; conditions: read-out: INH
[16] = Cytotoxicity against human HCT116 cells at 30 ug/mL by MTT assay; type: cell-based, HCT-116; conditions: read-out: INH
[17] = Cytotoxicity against human HCT116 cells at 10 ug/mL by MTT assay; type: cell-based, HCT-116; conditions: read-out: INH
[18] = Cytotoxicity against human HCT116 cells at 3 ug/mL by MTT assay; type: cell-based, HCT-116; conditions: read-out: INH
[19] = Cytotoxicity against human HCT116 cells after 48 and 72 hrs by MTT assay; type: cell-based, HCT-116; conditions: for GI50 at 72 h: HCT116 cells; for GI90: hct-116, 72 h
[20] = (§2) Cytotoxicity against human A549 cells after 48 and 72 hrs by MTT assay; type: cell-based; conditions: A549 cells
A549 = assay: as §2; type: cell-based; conditions: a549, 72 h
[21] = (§3) Cytotoxicity against human MCF7 cells after 48 and 72 hrs by MTT assay; type: cell-based; conditions: MCF7 cells
MCF7 = assay: as §3; type: cell-based; conditions: mcf7, 72 h
Escherichia coli = assay: Antibacterial activity against Escherichia coli after 18 hrs by broth dilution method; type: functional, organism-based
Pseudomonas = assay: Antibacterial activity against Pseudomonas after 18 hrs by broth dilution method; type: functional, organism-based
Staphylococcus aureus = assay: Antibacterial activity against Staphylococcus aureus after 18 hrs by broth dilution method; type: functional, organism-based
Bacillus subtilis = assay: Antibacterial activity against Bacillus subtilis after 18 hrs by broth dilution method; type: functional, organism-based

Row | Structure (SMILES) | growth inhibition (GI) [1] [%] | growth inhibition (GI) [2] [%] | inhibition of growth at 30 µg/mL [3] [%] | inhibition of growth at 10 µg/mL [4] [%] | inhibition of growth at 3 µg/mL [5] [%] | growth inhibition (GI) [6] [%] | IC50 [7] [µg/mL] | IC90 [8] [µg/mL] | IC50 [9] [µg/mL] | IC90 [9] [µg/mL] | cytotoxicity at 30 ug/mL [10] [%] | cytotoxicity at 10 ug/mL [11] [%] | cytotoxicity at 3 ug/mL [12] [%] | cytotoxicity at 30 ug/mL [13] [%] | cytotoxicity at 10 ug/mL [14] [%] | cytotoxicity at 3 ug/mL [15] [%] | cytotoxicity at 30 ug/mL [16] [%] | cytotoxicity at 10 ug/mL [17] [%] | cytotoxicity at 3 ug/mL [18] [%] | GI50 at 72 h [19] [µg/mL] | further results
1 | O=C1CSC(c2ccccc2)N1c1ccccc1 (configuration not stated) | 14.2 | 15.4 | 34.5 | 31.7 | 5 | 80.7 | 20.7 (≈ 81.1 µM) | > 30 | > 30 | > 30 | 31.7 | 5.3 | -4.2 | 0 | 0 | 0 | 16.8 | 3.2 | 3.3 | > 100 | GI90 [19]: > 100 µg/mL; GI50 at 72 h [20]: > 100 µg/mL; GI90 (A549): > 100 µg/mL; GI50 at 72 h [21]: > 100 µg/mL; GI90 (MCF7): > 100 µg/mL; IC50 (Escherichia coli): > 30 µg/mL; MIC (Escherichia coli): > 30 µg/mL; IC50 (Pseudomonas): > 30 µg/mL; MIC (Pseudomonas): > 30 µg/mL; IC50 (Staphylococcus aureus): > 30 µg/mL; MIC (Staphylococcus aureus): > 30 µg/mL; IC50 (Bacillus subtilis): > 30 µg/mL; MIC (Bacillus subtilis): > 30 µg/mL
2 | O=C1CSC(c2ccc(Br)cc2)N1c1ccccc1 (configuration not stated) | 48.7 | 44.4 | 97.7 | 66.4 | -33.2 | 48.8 | > 30 | > 30 | 8.9 (≈ 26.6 µM) | 25.2 (≈ 75.4 µM) | 32.8 | 23.8 | 22.1 | 0 | 0 | 0 | 10.1 | 4.9 | 2.4 | > 100 | GI90 [19]: > 100 µg/mL; GI50 at 72 h [20]: > 100 µg/mL; GI90 (A549): > 100 µg/mL; GI50 at 72 h [21]: > 100 µg/mL; GI90 (MCF7): > 100 µg/mL; IC50 (Escherichia coli): > 30 µg/mL; MIC (Escherichia coli): > 30 µg/mL; IC50 (Pseudomonas): > 30 µg/mL; MIC (Pseudomonas): > 30 µg/mL; IC50 (Staphylococcus aureus): > 30 µg/mL; MIC (Staphylococcus aureus): > 30 µg/mL; IC50 (Bacillus subtilis): > 30 µg/mL; MIC (Bacillus subtilis): > 30 µg/mL
3 | O=C1CSC(c2ccc(Cl)cc2)N1c1ccccc1 (configuration not stated) | -0.5 | 15.9 | 82.1 | 76.8 | 34.3 | 45.6 | > 30 | > 30 | 5.6 (≈ 19.3 µM) | > 30 | 40.1 | 20.6 | -1.4 | -20.4 | 0 | -10.3 | 3.9 | 0 | -7.5 | > 100 | GI90 [19]: > 100 µg/mL; GI50 at 72 h [20]: > 100 µg/mL; GI90 (A549): > 100 µg/mL; GI50 at 72 h [21]: > 100 µg/mL; GI90 (MCF7): > 100 µg/mL; IC50 (Escherichia coli): > 30 µg/mL; MIC (Escherichia coli): > 30 µg/mL; IC50 (Pseudomonas): > 30 µg/mL; MIC (Pseudomonas): > 30 µg/mL; IC50 (Staphylococcus aureus): > 30 µg/mL; MIC (Staphylococcus aureus): > 30 µg/mL; IC50 (Bacillus subtilis): > 30 µg/mL; MIC (Bacillus subtilis): > 30 µg/mL
4 | O=C1CSC(c2ccccc2)N1c1ccc(F)cc1 (configuration not stated) | 27.7 | 19.5 | 70 | 31.4 | 7.5 | 31 | > 30 | > 30 | 19.8 (≈ 72.4 µM) | > 30 | 7.5 | 0 | -3.9 | 11 | 0 | -13.4 | -6 | 5.3 | -5.4 | > 100 | GI90 [19]: > 100 µg/mL; GI50 at 72 h [20]: > 100 µg/mL; GI90 (A549): > 100 µg/mL; GI50 at 72 h [21]: > 100 µg/mL; GI90 (MCF7): > 100 µg/mL; IC50 (Escherichia coli): > 30 µg/mL; MIC (Escherichia coli): > 30 µg/mL; IC50 (Pseudomonas): > 30 µg/mL; MIC (Pseudomonas): > 30 µg/mL; IC50 (Staphylococcus aureus): > 30 µg/mL; MIC (Staphylococcus aureus): > 30 µg/mL; IC50 (Bacillus subtilis): > 30 µg/mL; MIC (Bacillus subtilis): > 30 µg/mL
